The source of these data is ChEMBL document CHEMBL3621195, “Analogues of the marine alkaloids oroidin, clathrodin, and hymenidin induce apoptosis in human HepG2 and THP-1 cancer cells” (Medchemcomm, 2015).

Molecules are shown by their SMILES.

This experiment has as its system HepG2. Nature of the experiment: Induction of apoptosis in human HepG2 cells at 50 uM incubated for 24 hrs by Annexin V-FITC and propidium iodide staining based microcapillary flow cytometry. The experiment is classed as functional.
Compound `Cc1c(NC(=O)c2cc3ccccc3o2)cccc1-n1cnnn1` gave an Activity of 45%.

The compound `CC(C)(C)OC(=O)n1cc(-c2ccc(NC(=O)c3ccc[nH]3)cc2)nc1N` displayed an Activity of 24%.

Compound `Cl.Nc1nc(-c2ccc(NC(=O)c3ccc[nH]3)cc2)c[nH]1` gave an Activity of 20%.

In the case of `CC(C)(C)OC(=O)n1cc(-c2ccc(NC(=O)c3cc4ccccc4[nH]3)cc2)nc1N`, the Activity is 90%.

In turn, `Cl.Nc1nc(-c2cccc(NC(=O)c3cc4ccccc4[nH]3)c2)c[nH]1` returned an Activity of 77%.

On to `Cl.Nc1nc(-c2cccc(NC(=O)c3cc4cc(O)ccc4[nH]3)c2)c[nH]1`, for which the Activity is recorded as 19%.

Compound `O=C(Nc1cccc(-c2ccn[nH]2)c1)c1cc2ccccc2[nH]1` gave an Activity of 68%.

As for `Nc1nc(-c2cccc(NC(=O)c3ccc[nH]3)c2)cn1Cc1ccccc1`, the Activity is reported as 54%.

`CC(C)(C)OC(=O)n1cc(-c2ccc(NCc3c[nH]cn3)cc2)nc1N` showed an Activity of 39%.

In turn, `CNC1=NC(c2cccc(NC(=O)c3ccco3)c2)CN1.Cl` (configuration not stated) showed an Activity of 28%.

`Nc1nc(-c2cccc(NCc3ccc[nH]3)c2)cn1Cc1ccccc1`: the Activity worked out at 86%.

Consider `CC(C)(C)OC(=O)n1cc(-c2ccc(NCc3ccc[nH]3)cc2)nc1N`, for which the Activity was determined as 34%.

For the compound `CC(C)(C)OC(=O)N1CCC[C@H]1C(=O)Nc1ccc(-c2cn(C(=O)OC(C)(C)C)c(N)n2)cc1`, the Activity is recorded as 20%.

`CC(C)(C)OC(=O)N1CCC[C@@H]1C(=O)Nc1ccc(-c2cn(C(=O)OC(C)(C)C)c(N)n2)cc1` registered an Activity of 23%.

Regarding `COCc1c(C(=O)Nc2cccc(-c3ccn[nH]3)c2)sc2cccc(F)c12`, the Activity is 65%.

In turn, `O=C(Nc1cccc(-c2ccn[nH]2)c1)c1ccc2[nH]nnc2c1` came in with an Activity of 20%.

`Cl.Nc1nc(-c2cccc(NC(=O)c3cc[nH]c3)c2)c[nH]1` displayed an Activity of 16%.

Take `CNC1=NC(c2cccc(NC(=O)c3ccc[nH]3)c2)CN1.Cl` (configuration not stated): the Activity is listed as 28%.

`CNC1=NC(c2cccc(NC(=O)c3cc4ccccc4[nH]3)c2)CN1.Cl` (configuration not stated) registered an Activity of 27%.

The compound `O=C1CCc2cc(C(=O)Nc3cccc(-c4ccn[nH]4)c3)ccc2N1` gave an Activity of 26%.

In the case of `Cc1nc(-c2cccc(NC(=O)c3cc4ccccc4[nH]3)c2)cs1`, the Activity is 57%.

Regarding `Cl.Cl.Nc1nc(-c2ccc(NC(=O)[C@@H]3CCCN3)cc2)c[nH]1`, the Activity worked out at 22%.

With `O=C(Nc1cccc(-c2ccn[nH]2)c1)c1cc2ccccc2o1`, the Activity is listed as 40%.

As for `O=C(Nc1cccc(-c2ccn[nH]2)c1)c1ccc2[nH]cnc2c1`, the Activity is on record as 47%.

In the case of `Cc1cc(C)n2nc(C(=O)Nc3cccc(-c4ccn[nH]4)c3)nc2n1`, the Activity turned out to be 31%.

In turn, `O=C(Nc1cccc(-c2ccn[nH]2)c1)c1cc2ccccc2c(=O)[nH]1` gave an Activity of 91%.

In the case of `Cc1nc(-c2cccc(NC(=O)c3cn4ccccc4n3)c2)cs1`, the Activity was 25%.

`CCn1cnnc1-c1cccc(NC(=O)c2cc3ccc(C)cc3[nH]2)c1` yielded an Activity of 55%.

For the compound `O=C(Nc1cccc(-n2cnnn2)c1)c1cc2ccccc2[nH]1`, the Activity came to 56%.

Consider `O=C(Nc1cccc(-n2cnnn2)c1)c1cn2ccccc2n1`, for which the Activity is on record as 27%.

With `O=C(NC1CC1)c1cccc(NC(=O)c2cc3c(F)cccc3[nH]2)c1`, the Activity is on record as 51%.

On to `Cc1cc(=O)[nH]c(-c2cccc(NC(=O)c3ccc(N(C)C)cc3)c2)n1`, for which the Activity came to 37%.

Compound `Cc1ccn2cc(C(=O)Nc3cccc(-c4nnco4)c3)nc2c1` registered an Activity of 6%.

For the compound `CCn1nnnc1-c1cccc(NC(=O)c2cc3ccccc3[nH]2)c1`, the Activity was 28%.

`O=C(Nc1cccc(-n2cnnn2)c1)c1cc2c(F)cccc2s1` came in with an Activity of 39%.

For the compound `Cc1ccc2cc(C(=O)Nc3cccc(C(N)=O)c3)[nH]c2c1`, the Activity amounted to 66%.

`O=C(Nc1cccc(N2CCCC2=O)c1)c1cc2ccccc2[nH]1` gave an Activity of 43%.
